# Source: US12600725B2 (Memorial Sloan-Kettering Cancer Center, priority 2013, dated 2026)
# Entries after “also recorded” stand apart in the source; their conditions may differ.
# Assays:
# MKN74 cells = test: Cell viability assessment (CellTiter-Glo); format: cell-based
# [1] = tested on: Toll-like receptor 9 (TLR9) trafficking in HEK293 cells transfected with HA-TLR9; test: TLR9-trafficking assay; format: cell-based, human; conditions: 24 h treatment
# Description: TLR^9-trafficking assay (Yang, Y. et al. Heat shock protein gp96 is a master chaperone for toll-like receptors and is important in the innate function of macrophages. Immunity 26, 215-26 (2007)). HEK 293T cells were transfected with pUNO-hTLR9-HA (Invivogen) using X-tremgene HP (Roche) according to the manufacturer's instructions. At 24 hrs post-transfection, cells were split onto cell culture chamber slides (Lab-Tek). Cells were then treated for 24 hrs with indicated compound at varying concentrations. After treatment, cells were fixed for 20 min in 4% paraformaldehyde in PBS, permeabilized with 0.1% Triton-X 100 in PBS for 10 min, blocked with 3% BSA in PBS for 30 min, followed by staining for 1 hr with an anti-HA antibody (Abcam, ab9110) or a normal rabbit IgG. Cells were washed with PBS, stained with an anti-rabbit-Cy3 antibody (Invitrogen) and finally mounted in the dark at 4° C. with Prolong Gold Antifade reagent (with DAPI). Cells were visualized under a confocal microscope (Leica Upright Confocal SP5). Fluorescence intensity was quantified using MetaMorph Microscopy Automation and Image Analysis Software (Molecular Devices Inc.) and normalized to the cell number.
# NCI-N87 cells [2] = test: Cell viability assessment (CellTiter-Glo); format: cell-based
# Capan-2 cells = test: Cell viability assessment (CellTiter-Glo); format: cell-based
# PANC-1 cells [3] = test: Cell viability assessment (CellTiter-Glo); format: cell-based
# OE19 cells [4] = test: Cell viability assessment (CellTiter-Glo); format: cell-based
# [5] = tested on: IGF-II secretion by differentiated C2C12 cells; test: C2C12 differentiation and IGF-II secretion assay; format: cell-based, mouse; conditions: 24 hrs treatment
# Excerpt: C2C12 differentiation and IGF-II secretion assay (Wanderling, S. et al. GRP94 is essential for mesoderm induction and muscle development because it regulates insulin-like growth factor secretion. Mol. Biol. Cell 18, 3764-75 (2007); Ostrovsky, O., Ahmed, N.T. & Argon, Y. The chaperone activity of GRP94 toward insulin-like growth factor II is necessary for the stress response to serum deprivation. Mol. Biol. Cell 20, 1855-64 (2009)). C2C12 cells were maintained and cultured in DMEM in the presence of 10% FBS and 1% penicillin/streptomycin (Culture medium). C2C12 is an immortal line of mouse skeletal myoblasts originally derived from satellite cells from the thigh muscle of a two month old female mouse donor. These cells differentiate well into myocytes under appropriate culture conditions. […] Secreted IGF-II was quantified by using IGF-II mouse ELISA kit (Abcam, AB100696) according to the manufacturer's instructions. […] The bound IGF-II was detected with a biotinylated anti-IGF-II antibody. After the sequential incubation with HRP conjugated streptavidin, TMB One-step substrate reagent and the Stop solution, the absorbance was measured at 450 nm. The secreted IGF-II was quantified against a standard curve generated with recombinant IGF-II provided by the kit.
# [6] = tested on: IGF1R and TGFbeta expressing ovarian cancer cell lines; test: Apoptosis in ovarian cancer cell lines; format: cell-based
# Description: (§1) Cell cycle and apoptosis assessment. Cell cycle and apoptosis were assessed by flow cytometry after single staining with propidium iodide (PI, BD Pharmingen) or double staining with AnnexinV-FITC (BD Pharmingen) and 7AAD (BD Pharmingen), respectively. Specifically, for cell cycle analysis, cells were washed twice with cold PBS and fixed in 70% ethanol overnight at 4° C. Fixed cells were collected at 1800 rpm for 10 min and stained with PBS containing PI and DNase-free RNase A (Sigma-Aldrich) for 1 h at room temperature in the dark. DNA content was measured by BD LSRII flow cytometer and cell further analyzed using program of cell cycle analysis in FloJo (Ashland, OR). The chicken erythrocyte nuclei singlets (CEN, Biosure) were used as the reference. For apoptosis assessment, live cells were collected, washed twice with cold PBS, resuspended in Binding Buffer and stained with AnnexinV-FITC and 7AAD for 15 min at room temperature in the dark. Signals from FL1 and FL3 channels were collected by MACSQuant analyzer and further analyzed using FloJo. Early apoptosis was defined as AnnexinV+/7AAD−, and late apoptosis was observed as AnnexinV+/7AAD+.
# A673 Ewing sarcoma cells = test: Apoptosis assessment (Annexin V / 7AAD); format: cell-based
# Description: (§2) The disclosure provides evidence that Grp94 inhibitors are efficacious in treating cancer with altered expression of the IGF1R and where the receptor is necessary for pathogenesis and tumor progression.
# as §1
# TC71 Ewing sarcoma cells = test: Apoptosis assessment (Annexin V / 7AAD); format: cell-based
# Description: as §2, §1
# LRP6 in the normal GI = test: PD analysis of normal GI tissues (Western blot); format: in vivo, mouse
# PANC-1 cells [7] = test: Apoptosis assessment (Annexin V / 7AAD); format: cell-based
# Excerpt: (§3) Annexin V Apoptosis with 7-AAD has been specifically designed for the identification of apoptotic and necrotic cells. Annexin V (or Annexin A5) is a member of the annexin family of intracellular proteins that binds to phosphatidylserine (PS) in a calcium-dependent manner. PS is normally only found on the intracellular leaflet of the plasma membrane in healthy cells, but during early apoptosis, membrane asymmetry is lost and PS translocates to the external leaflet. Fluorochrome-labeled Annexin V can then be used to specifically target and identify apoptotic cells. Annexin V binding alone cannot differentiate between apoptotic and necrotic cells. To help distinguish between the necrotic and apoptotic cells 7-amino-actinomycin D (7-AAD) is used. Early apoptotic cells will exclude 7-AAD, while late stage apoptotic cells will stain positively, due to the passage of these dyes into the nucleus where they bind to DNA. 7-AAD (7-amino-actinomycin D) has a high DNA binding constant and is efficiently excluded by intact cells. It is useful for DNA analysis and dead cell discrimination during flow cytometric analysis. When excited by 488 laser light, 7-AAD fluorescence is detected in the far red range of the spectrum (650 nm long-pass filter).
# as §1
# OE19 cells [8] = test: Apoptosis assessment (Annexin V / 7AAD); format: cell-based
# Excerpt: as §3, §1
# NCI-N87 cells [9] = test: Apoptosis assessment (Annexin V / 7AAD); format: cell-based
# Excerpt: as §3, §1
compound,measurement,setting,value
CC(C)NCCCn1c(Sc2cc(Cl)cc(Cl)c2)nc2c(N)ncnc21 [PU-WS13],sensitivity to Grp94 inhibition,MKN74 cells,not sensitive
same,TLR9 trafficking,[1],inhibits TLR^9 trafficking
same,sensitivity to Grp94 inhibition,NCI-N87 cells [2],highly susceptible
same,effect on cell growth,Capan-2 cells,no effect
same,effect on cell growth,PANC-1 cells [3],effectively inhibited the growth
same,sensitivity to Grp94 inhibition,OE19 cells [4],highly susceptible
same,IGF-II secretion,[5],inhibited IGF-II secretion
same,induction of apoptosis,[6],induces apoptosis
same,induction of apoptosis,A673 Ewing sarcoma cells,capable of inducing apoptosis
same,induction of apoptosis,TC71 Ewing sarcoma cells,capable of inducing apoptosis
same,LRP6 levels in normal GI,LRP6 in the normal GI; 75 mg/kg,could not detect a significant decrease in LRP6
same,LRP6 levels in normal GI,LRP6 in the normal GI; 150 mg/kg,no acute tox or change in LRP6 levels
same,induction of apoptosis,PANC-1 cells [7],substantial increase; also recorded: more potent at killing cells through apoptosis
same,cells exhibiting markers of early- and late-stage apoptosis,OE19 cells [8],substantial increase
same,cells exhibiting markers of early- and late-stage apoptosis,NCI-N87 cells [9],substantial increase
